# What was measured:
# [1] = system: MHEC-5T hemangioendothelioma tumor; assay: Inhibition of tumor blood flow, Fluorescent Bead Assay; format: in vivo, mice; details: for % VAPM (vessel area per tumor tissue area as a percentage of the control): single i.p. injection, 24 hours post-treatment
# Protocol: The antivascular effects of the indole phosphate prodrug Oxi-8007, was assessed in tumor-bearing mice using a Fluorescent Bead Assay. A MHEC-5T hemangioendothelioma tumor model was established by subcutaneous injection of 0.5×10^6 cultured transformed cell murine myocardial vascular endothelial cell line (“MHEC5-T”) cells into the right flank of Fox Chase CB-17 Severe Combined Immunodeficient (“SCID”) mice. When transplanted tumors reached a size of 500 mm^3 (a size without development of necrosis), the mice received a single intraperitoneal (i.p.) injection of saline control or compound at doses ranging from 3.2 to 25 mg/kg. At 24 hours post-treatment, mice were injected intravenously with 0.25 ml of diluted FluoSphere beads (1:6 in physiological saline) in the tail vein, sacrificed after 3 minutes, and tumor was excised for cryosectioning. Tumor cryosections at a thickness of 8 um were directly examined using quantitative fluorescent microscopy. Blood vessels were indicated by blue fluorescence from injected beads. For quantification, image analysis of 3 sections from three tumors treated in each group were examined and vascular shutdown was expressed as vessel area (mm^2) per tumor tissue area (mm^2) as a percentage of the control (“%VAPM”). The results as shown in Table 4 indicate a clear dose-dependent effect of the agent on tumor blood flow as indicated by the reduction in blood vessel area at 24 hours following administration of Oxi8007. Administration of a dose of 100 mg/kg of Oxi-8007 or higher was particularly effective, causing a >98% reduction in tumor vessel volume relative to the control. A time-course of the effect of OX08007 on tumor blood flow is illustrated in FIG. 14.
# Additional compounds of the present invention were tested for antivascular effects at two dosages (100 mg/kg and 10 mg/kg) using the same Fluorescent Bead Assay as in the previous experiment.
# [2] = system: NCI-H460 (lung-NSC); assay: In vitro growth inhibition (SRB), NCI-H460; format: cell-based, human; details: 48 hours incubation
# Protocol: (§1) Newly prepared compounds were evaluated for cytotoxic activity against a variety of cell lines derived from human tumors using an assay system similar to the National Cancer Institute procedure previously described (Monks et al, J. Natl. Cancer Inst., 1991). Briefly, the cell suspensions, diluted according to the particular cell type and the expected target cell density (5,000-40,000 cells per well based on cell growth characteristics), were added by pipet (100 μl) to 96-well microtiter plates. Inoculates were allowed a preincubation time of 24-28 hours at 37° C. for stabilization. Incubation with the inhibitor compounds lasted for 48 hours in 5% CO2 atmosphere and 100% humidity. Determination of cell growth was performed by in situ fixation of cells, followed by staining with a protein-binding dye sulforhodamine B (SRB), which binds to the basic amino acids of cellular macromolecules. The solubilized stain was measured spectrophotometrically.
# (§2) Several compounds were evaluated for cytotoxic activity against […] P388 leukemia cell lines. […] These and additional compounds were evaluated in terms of growth inhibitory activity against several other […] cancer cell lines including: central nervous system (“CNS”, SF-295), pancreas (BXPC-3), non-small cell lung cancer (“lung-NSC”, NCI-H460), breast (MCF-7), colon (KM20L2), ovarian (OVCAR-3), and prostate (DU-145). […]
# [3] = system: SF-295 (CNS); assay: In vitro growth inhibition (SRB), SF-295; format: cell-based, human; details: 48 hours incubation
# Protocol: as §1, §2
# [4] = system: MCF-7 (breast); assay: In vitro growth inhibition (SRB), MCF-7; format: cell-based, human; details: 48 hours incubation
# Protocol: as §1, §2
# [5] = system: DU-145 (prostate); assay: In vitro growth inhibition (SRB), DU-145; format: cell-based, human; details: 48 hours incubation
# Protocol: as §1, §2
# [6] = system: KM20L2 (colon); assay: In vitro growth inhibition (SRB), KM20L2; format: cell-based, human; details: 48 hours incubation
# Protocol: as §1, §2
# [7] = system: BXPC-3 (pancreas); assay: In vitro growth inhibition (SRB), BXPC-3; format: cell-based, human; details: 48 hours incubation
# Protocol: as §1, §2
# [8] = system: MDA-MB-231 cells; assay: Tumor growth control in vivo, MDA-MB-231 human breast adenocarcinoma model; details: SCID mice, 25, 50 or 100 mg/kg daily i.p. for 5 consecutive days; effective dose printed as X mg/kg
# Protocol: The antitumor activity of indole phosphate prodrug, Oxi-8007, was assessed in tumor-bearing mice by measuring its effects on tumor volume. A human breast adenocarcinoma model was established by subcutaneous injection of cultured MDA-MB-231 cells in Fox Chase CB-17 SCID mice. When the average tumor size reached 50-100 mm^3, mice were randomly divided into several groups (n=10) with no significant difference in body weight and tumor size. Mice were administered Oxi-8007 in saline carrier at doses of 25, 50 or 100 mg/kg by daily intraperitoneal (i.p.) injection for 5 consecutive days (Q1×5). Saline carrier only was used as the control treatment. On Day 3, 7, 10, 13, 17 and 23, tumors were excised from animals in each treatment group (n=2) and measured by width and length. Tumor volume was calculated according to the following formula: Length×Width^2×0.4. The dosage effects of Oxi-com 197 is illustrated in FIG. 15.
smiles,measurement,setting,value
"COc1ccc2c(C(=O)c3cc(OC)c(OC)c(OC)c3)c(-c3ccc(OC)c(OP(=O)([O-])[O-])c3)[nH]c2c1.[Na+].[Na+] [Oxi-8007, 2-(3′-Disodiumphosphate-4′-methoxyphenyl)-3-(3″,4″,5″-trimethoxybenzoyl)-6-methoxyindole]",% VAPM (vessel area per tumor tissue area as a percentage of the control),[1]; 50 mg/kg,52%
same,% VAPM (vessel area per tumor tissue area as a percentage of the control),[1]; 100 mg/kg,2%
same,% VAPM (vessel area per tumor tissue area as a percentage of the control),[1]; 200 mg/kg,1%
same,reduction in tumor vessel volume relative to the control,"[1]; dose of 100 mg/kg or higher, 24 hours",> 98%
same,GI50 for Cell Line NCI-H460,[2],2.7 ng/mL
same,GI50 for Cell Line SF-295,[3],5.5 ng/mL
same,GI50 for Cell Line MCF-7,[4],2.3 ng/mL
same,GI50 for Cell Line DU-145,[5],<1 ng/mL
same,GI50 for Cell Line KM20L2,[6],4.3 ng/mL
same,GI50 for Cell Line BXPC-3,[7],46 ng/mL
same,tumor growth (tumor volume) relative to control treatment,[8],significantly inhibited tumor growth

# Source: patent publication US20070082872A1, “Indole-containing compounds with anti-tubulin and vascular targeting activity” (priority 1999, published 2007)
